Data taken from PubChem BioAssay AID1645862 (Buhrlage Lab, Dana-Farber Cancer Institute and Novartis …, 2021).
The source made the active and inactive calls. How the calls were made is not given here.

Target: Ubiquitin carboxyl-terminal hydrolase 8 (Homo sapiens) (UniProt P40818)
Experiment: Ubiquitin-specific protease 8 inhibitors, concentration-effect, biochemical, validation of initial actives (AID 1645862);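 further: potency reflects inhibition of USP8 cleavage of a ubiquitin rhodamine substrate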
Conditions: recombinant USP8 deubiquitinase activity assay

Chain of Ubiquitin carboxyl-terminal hydrolase 8 (Homo sapiens) (P40818 whole entry, looked up): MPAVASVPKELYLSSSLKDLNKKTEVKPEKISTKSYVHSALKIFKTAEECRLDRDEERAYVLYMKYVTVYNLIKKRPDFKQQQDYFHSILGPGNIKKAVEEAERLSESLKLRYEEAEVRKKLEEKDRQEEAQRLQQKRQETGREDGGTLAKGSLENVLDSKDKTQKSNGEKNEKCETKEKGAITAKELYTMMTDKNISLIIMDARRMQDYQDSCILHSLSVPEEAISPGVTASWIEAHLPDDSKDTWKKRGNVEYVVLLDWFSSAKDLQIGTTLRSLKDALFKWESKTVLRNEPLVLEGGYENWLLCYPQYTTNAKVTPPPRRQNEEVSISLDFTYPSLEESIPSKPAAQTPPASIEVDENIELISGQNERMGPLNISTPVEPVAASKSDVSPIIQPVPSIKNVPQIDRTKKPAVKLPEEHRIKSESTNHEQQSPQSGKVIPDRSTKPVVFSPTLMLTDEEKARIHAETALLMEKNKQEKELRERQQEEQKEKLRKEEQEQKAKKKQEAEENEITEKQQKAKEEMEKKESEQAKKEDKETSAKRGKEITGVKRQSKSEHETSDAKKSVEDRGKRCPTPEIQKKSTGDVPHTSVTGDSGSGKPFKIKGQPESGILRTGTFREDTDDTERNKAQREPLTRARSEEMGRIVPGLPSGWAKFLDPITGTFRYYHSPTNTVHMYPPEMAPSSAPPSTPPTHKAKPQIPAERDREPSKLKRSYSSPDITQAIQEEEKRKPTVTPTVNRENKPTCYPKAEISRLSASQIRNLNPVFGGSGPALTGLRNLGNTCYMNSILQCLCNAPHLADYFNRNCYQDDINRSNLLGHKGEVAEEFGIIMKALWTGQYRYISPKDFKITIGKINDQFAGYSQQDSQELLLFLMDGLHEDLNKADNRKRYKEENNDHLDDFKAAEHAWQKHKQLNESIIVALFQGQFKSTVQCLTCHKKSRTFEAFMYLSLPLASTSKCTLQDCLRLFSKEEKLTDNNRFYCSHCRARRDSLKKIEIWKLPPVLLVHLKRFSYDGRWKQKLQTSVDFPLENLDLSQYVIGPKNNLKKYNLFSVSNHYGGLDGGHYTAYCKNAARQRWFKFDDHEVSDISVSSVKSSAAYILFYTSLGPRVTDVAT

IC50, inactive:
O=C(Nc1ccc2c(c1)CCC2)C1Cc2ccccc2CN1C(=O)c1ccccc1 (stereo not drawn) > 40 µM
CC(C)c1nnc(NC(=O)C2CC(=O)N(CCc3ccc(F)cc3)C2)s1 (stereo not drawn) > 40 µM
CC(OC(=O)c1cc(S(=O)(=O)Nc2ccccc2F)ccc1Cl)C(=O)Nc1ccc([N+](=O)[O-])cc1C(F)(F)F (stereo not drawn) > 40 µM
COC(=O)c1ccc(NC(=O)/C=C/c2ccc(F)cc2)cc1 > 40 µM
Cc1ccc(-n2nc(C)c3c2NC(=O)CC3C(=O)c2cc3ccccc3o2)cc1C (stereo not drawn) > 40 µM
O=C(CCSc1nnnn1-c1ccccc1)Nc1cc(C(F)(F)F)ccc1Cl > 40 µM
COc1ccc(S(=O)(=O)N2CCc3ccccc32)cc1C(=O)Nc1ccc2c(c1)NC(=O)C(C)O2 (stereo not drawn) > 40 µM
COc1ccc(NC(=O)Cn2c(=O)n(Cc3ccco3)c(=O)c3ccc(C(=O)NC4CCCC4)cc32)cc1 > 40 µM
O=C(Nc1ccccc1C(F)(F)F)c1cccc(S(=O)(=O)Nc2cc(C(F)(F)F)ccc2Cl)c1 > 40 µM
O=C(NCc1ccc(Cl)cc1)c1cc2c(s1)-c1ccccc1OC2 > 40 µM
N#Cc1ccc(NC(=O)Nc2cccn(Cc3ccccc3F)c2=O)cc1 > 40 µM
O=C(Nc1cccc(Cl)c1)c1cc(-c2cccnc2)n[nH]1 > 40 µM
Cc1ccc(NC(=O)c2ccc3nn(CC(=O)Nc4ccc(C)cc4C)c(=O)n3c2)cc1 > 40 µM
CCCCN1CC(C(=O)Nc2ccc(C(=O)Nc3ccc(C(N)=O)cc3)cc2)CC1=O (stereo not drawn) > 40 µM
Cc1cc(=O)[nH]c(SCC(=O)c2cc(C)n(CCC3=CCCCC3)c2C)c1C#N > 40 µM
COC(=O)c1ccc(C(=O)Nc2cc3ccccc3cc2NC(=O)c2ccc(C(=O)OC)cc2)cc1 > 40 µM
O=c1[nH]cccc1NS(=O)(=O)c1ccc(F)cc1 > 40 µM
O=C(NC1CCCCCC1)c1cccc(S(=O)(=O)Nc2cc(C(F)(F)F)ccc2Cl)c1 > 40 µM
CSCCC(NC(=O)c1ccccc1)c1nc2ccccc2n1CC(=O)Nc1ccccc1 (stereo not drawn) > 40 µM
Cc1cc(C)cc(NC(=O)C2CC(=O)Nc3nc4ccccc4n32)c1 (stereo not drawn) > 40 µM
COc1ccc(C2/C(=C(\O)c3ccccc3)C(=O)C(=O)N2c2cccc(C(F)(F)F)c2)cc1 (stereo not drawn) > 40 µM
COc1ccc(CNC(=O)CN2C(=O)CC(c3ccccc3)=Nc3ccccc32)cc1 > 40 µM
O=C(Nc1ccc2snnc2c1)Nc1ccc(F)cc1F > 40 µM
Cc1c(-c2nc(-c3ccccc3Cl)no2)nnn1-c1cccc(F)c1 > 40 µM
CCc1nc(SCC(=O)Nc2ccc(Cl)c(Cl)c2)c2oc3ccccc3c2n1 > 40 µM
COc1ccc(-c2nc(Cn3nnc(C(=O)Nc4ccc(C)c(C)c4)c3N)c(C)o2)cc1 > 40 µM
O=C1CC(O)C(O)c2cccc(O)c21 (stereo not drawn) > 40 µM
Cc1ccc2[nH]c(=O)c(-c3nc4ccccn4c3NCc3ccccc3)cc2c1 > 40 µM
O=C(CN1C(=O)c2cccc3cccc1c23)NCCSCc1ccc(Cl)c(Cl)c1 > 40 µM
COc1cc(Cn2cnc3c([nH]c4ccc(Br)cc43)c2=O)cc(OC)c1 > 40 µM
Cc1cc(N2CCN(c3ncccn3)CC2)nc2ccc(NC(=O)c3ccncc3)cc12 > 40 µM
O=C(CCn1c(=O)c2ccccc2n(Cc2ccc(F)cc2Cl)c1=O)NCc1ccco1 > 40 µM
O=C(Nc1ccc(F)cc1)Nc1ccccc1OCc1cc(=O)n2ccccc2n1 > 40 µM
Cn1c(=O)c(-c2ccc(C(=O)NCc3cccc(Cl)c3)cc2)nc2cccnc21 > 40 µM
Cc1ccc(CNC(=O)Cn2c(=O)n(CCCC(=O)NCc3ccc(F)cc3)c(=O)c3ccccc32)cc1 > 40 µM
CCOc1ccc(C2/C(=C(\O)c3ccccc3)C(=O)C(=O)N2c2nc3ccc(F)cc3s2)cc1 (stereo not drawn) > 40 µM
O=C(Cn1c(=O)n(CC2CCC(C(=O)NC3CCCC3)CC2)c(=O)c2ccccc21)NCCC1=CCCCC1 (stereo not drawn) > 40 µM
CCN(CC)C(=O)c1sc(NC(=O)/C=C/c2c(F)cccc2Cl)c(C#N)c1C > 40 µM
COC(=O)c1ccc(C2c3[nH]c4ccccc4c3C[C@@H]3C(=O)N(c4ccc5c(c4)OCCO5)C(=O)N23)cc1 (stereo partly drawn) > 40 µM
COc1ccc(NC(=O)CNC(=O)c2ccc3nc(-n4cccc4)sc3c2)cc1 > 40 µM
COc1cccc(C(=O)Nc2nc(-c3nnn(-c4ccc(C)c(F)c4)c3C)ns2)c1 > 40 µM
Cc1ccc(C)c(Cn2cnc3c(nnn3-c3cccc(F)c3)c2=O)c1 > 40 µM
COc1ccc(NC(=O)Cn2cc(C(=O)c3ccc(Cl)cc3)c(=O)c3cc(F)ccc32)cc1 > 40 µM
COc1ccc(C)cc1NC(=O)CN1C(=O)C2CCCC2=Nc2ccccc21 (stereo not drawn) > 40 µM
COc1cc2c(cc1OC)-c1cc(Nc3ccc(Br)cc3)nc(=O)n1CC2 > 40 µM
COc1cc2c(=O)n(CCC(=O)NC3CCCC3)c(=O)n(CC(=O)Nc3cccc(Cl)c3)c2cc1OC > 40 µM
Cc1ccc(S(=O)(=O)N2CCC3(CC2)OC(=O)Nc2ccccc23)cc1 > 40 µM
COc1ccc(C(=O)Nc2ccccc2C(=O)NC(Cc2ccc(O)cc2)C(=O)NNC(=O)c2ccccc2Cl)cc1 (stereo not drawn) > 40 µM
O=C(CCn1c(=O)c2sccc2n(CC(=O)OCc2ccccc2)c1=O)NCc1ccc2c(c1)OCO2 > 40 µM
CSc1ccc(C(=O)Nc2nc(-c3ccncc3)cs2)cc1 > 40 µM
COc1ccc(CNC(=O)Nc2cccc3ccccc23)cc1 > 40 µM
COc1ccc(CC(=O)Nc2ccccc2-c2nc3ccccc3[nH]2)cc1OC > 40 µM

IC50, active:
CCc1ccc(NC(=O)Cc2nnc3cc(-c4nc(C)no4)ccn23)cc1 19.6 µM
Cc1cc(=O)n(C)c2c(O)c3c(cc12)c(C)cc(=O)n3C 0.256 µM
O=C(Cn1nc2c3c4c(sc3ncn2c1=O)CCCCC4)Nc1ccc(Cl)cc1F 26.1 µM
COc1cccc(NC(=O)Cn2cc(C(=O)c3ccc(C)cc3)c(=O)c3cc(Cl)ccc32)c1 19.3 µM
CC1=CC(=O)C(C2=C(O)C(=O)C(C)=CC2=O)=C(O)C1=O 9.22 µM
NC(=O)c1ccccc1NC(=O)COc1ccc2c(c1)oc(=O)c1ccccc12 32.6 µM
